Literature values in patent US9901554B2, “Biodegradable compositions suitable for controlled release” (INGELL TECHNOLOGIES HOLDING B.V., priority 2011, dated 2018).
Read-outs that look alike come from different tables or passages of the source.

| Molecule | solubility in water (small molecules and peptide) | solubility in water (model proteins) |
| --- | --- | --- |
| CN(CC(O)CO)C(=O)c1c(I)c(NC(=O)C(CO)CO)c(I)c(C(=O)N(C)CC(O)CO)c1I (centres unmarked) [iobitridol] | above 5000 ug/ml |  |
| CC1(C)O[C@@H]2C[C@H]3[C@@H]4CCC5=CC(=O)C=C[C@]5(C)[C@@]4(F)[C@@H](O)C[C@]3(C)[C@]2(C(=O)CO)O1 [triamcinolone acetonide] | below 20 ug/ml |  |
| Cc1ccc(-c2cc(C(F)(F)F)nn2-c2ccc(S(N)(=O)=O)cc2)cc1 [celecoxib] | below 1 ug/ml |  |
| lysozyme: water soluble model protein of around 16 kDa (Sigma) |  | above 10000 μg/ml |
| bovine serum albumin: water soluble model protein (Sigma) |  | above 10000 μg/ml |
